Data on 4 compounds can be found in PMC9022420 (Scientific Reports, 2022).

In general, IC50 refers to the point on the concentration scale where inhibition reaches its midpoint. A higher IC50 goes with lower potency.

Series [1] in a line: Singlet oxygen quantum yield determination. In kind it is physicochemical. To be noted: in MeCN; for φΔ singlet oxygen quantum yield: calculated using Ru(bpy)3^2+ as the reference.
Series [2] is described as follows: Flavin photostability in PBS under white LED irradiation. It counts as physicochemical. To be noted: 100 µM in PBS, white LED 1 × 10^5 lx, 30 min irradiation. An excerpt:
After successful synthesis and initial characterisation, we monitored the photostability of the compounds in PBS (1x, pH 7.4) which was used for PDI assays as distilled or ultrapure water destabilises bacterial cells and coronaviruses through osmotic pressures[37],[38], thereby augmenting inactivation results. […] This yields lumichrome as the major degradation product which can only act as a PS under UV-irradiation[40]. […] However, it appears that guanidino substitution in our case improves the photostability.
Figure S4: (A) Flavin photostability (100 µM) in PBS (0.1% DMSO) irradiated with 1x105 lx (35 mW/cm2) where A
= Abs at 450 nm and A0 = Abs at 450 nm at 0 min.
photostability. Experiments were performed using a quartz cuvette and measured using an Agilent Cary 300
(1 picture or pasted object on this page, not shown here)

In series [3] the test system is murine hepatitis virus A59 strain (MHV-A59). As to the kind of experiment: Photodynamic inactivation of MHV-A59 (TCID50 assay in 17Cl-1 cells). In kind it is cell-based. The procedure:
The efficacy of the flavins were enumerated utilizing modified methods from ISO 18,184 and Leibowitz et al.[56] […] 100 µM working stock solutions were then created by diluting each DMSO solution into PBS. To control for the effect of DMSO on MHV-A59, DMSO was diluted into PBS at the same concentration. A white light apparatus was set up to cover a 4 × 5 (row x column) area of a 96-well plate with the same level of light intensity (1 × 10^5 lx). The stock solutions were then diluted in replicates of four to a total of 180 µl in PBS at 1, 5, and 10 µM concentrations for each sample. Virus stocks of MHV-A59 were thawed on ice prior to use. 20 µl of MHV-A59 stock (1.4 × 10^9 PFU/ml) was then mixed into each well, and the 4 × 5 well matrix was treated with the light or incubated in the dark at room temperature for a specified time (5, 10, or 15 min).
After treatment, the samples were mixed into 320 µl of Gibco Difco™ Beef Extract (1.5% w/v beef extract in ddH2O; Life Technologies) and rolled for 15 min to chelate any free ions in the solution. The samples then were serially diluted (10^0–10^–7) in infectivity media (Dulbecco’s modified Eagle’s medium low glucose 1 g/L (DMEM, Life Technologies) supplemented with 2.5% fetal bovine serum (Merck), 3% tryptose phosphate broth (Merck), 1 × non-essential amino acids (Gibco), 1 × antibiotic–antimycotic (Thermo Fisher Scientific) and 1 × L-Glutamine (Gibco]) and added in triplicate to 17Cl-1 cell plates. For each sample or control there were 4 replicate treatments (in light or dark); each treatment replicate was plated in triplicate. Infected 17Cl-1 plates were incubated at 37 °C in a 5% CO2 atmosphere for 24 h. Plates were scored for cytopathic effect (CPE) by microscopy and viral titres were determined by the Reed and Muench 50% tissue culture infectious dose (TCID50) end point method. Outliers were removed from the four replicates using an outlier test. The full protocol was repeated in triplicate on different days to account for any variability in the assay.

Series [4] has as its system WI-38 cells. Description: 24 h MTS cytotoxicity assay, WI-38. In kind it is cell-based. The settings on record: Homo sapiens, 24 h incubation, dark. On the procedure: (§1) The MTS tetrazolium compound is reduced by cells into a coloured formazan product which is soluble in cell culture media. It can be detected colorimetrically between 450 and 540 nm with the measured absorbance directly proportional to the amount of metabolically active cells in culture. Cells were seeded into clear 96-well plates containing 10,000 cells/well in 100 µL complete growth medium and cultured for 24 h at 37 °C and 5% CO2. […] After further 24 h incubation at 37 °C and 5% CO2, 20 µL of CelTiter 96® AQueous One Solution (Promega) was added into each well and incubated at 37 °C, 5% CO2 for 1–4 h, according to the manufacturer’s instruction. The absorbance of each well was measured at 490 nm using a plate reader (Spark, Tecan). Control measurements included negative control of cells with DMEM, cells with DMEM containing 0.1% DMSO, cell-free culture media (blank) and cell-free sample dilutions in culture media to evaluate potential sample interferences with MTS assay. All experiments were conducted in biological triplicates. The percentage cell viability was calculated according to Eq. (1):1 Cell viability(%)=100×Absorbanceoftreatedcells-Absorbanceofblank/Absorbanceofcontrol-Absorbanceofblank

A further series has as its system 17Cl-1 cells. As to the kind of experiment: 24 h MTS cytotoxicity assay, 17Cl-1. To be noted: Mus musculus, 24 h incubation, dark. It counts as cell-based, murine. The procedure: as §1
(In general: Tetrazolium dyes change colour on reduction, which living cells bring about.)

The subject of series [5] is WI-38 cells. As to the kind of experiment: Light-induced toxicity towards WI-38 cells (MTS). It counts as cell-based, human. To be noted: 10 μM flavin, 15 min irradiation 1 × 10^5 lx. The procedure:
An adapted method reported by Maisch et al. was used to conduct phototoxicity studies on human lung fibroblasts, WI-38[28]. Cells were seeded into 96-well plates containing 10,000 cells/well in 100 µL complete growth medium and cultured for 24 h at 37 °C and 5% CO2. […] The resulting mixtures were then incubated in the dark for 5 min and then either illuminated with 1 × 10^5 lx for 5, 10 or 15 min, or incubated further in the dark for 15 min (dark control). After irradiation, the flavin solutions were removed and 100 μL of DMEM with 10% FBS and without phenol red was added to each well and incubated over night at 37 °C and 5% CO2. Subsequently, 20 µL of MTS reagent was added into each well and incubated at 37 °C and 5% CO2 for 1–4 h and the absorbance of each well was measured at 490 nm using a plate reader. Control measurements included negative control untreated cells with light and in the dark containing 0.1% DMSO and cells treated with flavins for 15 min in the dark. All experiments were conducted in biological triplicates. The percentage cell viability was calculated according to Eq. (1).

The mark [6] stands for this setting: 5 µM flavin, 10 min irradiation.
Setting [7] is: 10 µM flavin, 10 min irradiation.
[8] abbreviates: 1 µM flavin, 10 min irradiation (21.0 J/cm^2).

A value given as a limit tells only on which side of the number the result lay.

Consider `CCCCCCCCn1c(=O)nc2n(CCN)c3cc(C)c(C)cc3nc-2c1=O` [Flavin F1], for which, in series [1], the “φΔ singlet oxygen quantum yield” value was 0.49 ± 0.12. Also, in series [2], the photodecomposition / degradation entry is reported as “around 40%”. In addition, the “MHV-A59 log10 reduction in viral titre” value in series [3] (setting [6]) is 1.7 log10; in series [3] (10 µM flavin, 5 min irradiation (10.5 J/cm^2)), 1.2 log10; in series [3] (setting [7]), 2.1 log10; in series [3] (10 µM flavin, 15 min irradiation (31.5 J/cm^2)), 2.2 log10. The IC50 with WI-38 cells [4] was 96.1 µM; in the series with 17Cl-1 cells, 70.2 µM. Also, the “reduction in cell viability (light-induced toxicity)” value (shortened to “reduction in cell viability”) in the series on WI-38 cells [5] is “no decrease in cell viability”.

For the compound `CCCCCCCCn1c(=O)nc2n(CCNC(=N)N)c3cc(C)c(C)cc3nc-2c1=O` [Flavin F2], in series [1], the “ФΔ singlet oxygen quantum yield” value stood at 55%. Moreover, the “φΔ singlet oxygen quantum yield” value in series [1] is on record as 0.55 ± 0.10. Moreover, in series [2], the photodecomposition / degradation entry is reported as “approximately 10%”. The “MHV-A59 log10 reduction in viral titre” value in series [3] (setting [8]) is reported as 2.1 log10; in series [3] (setting [6]), 3.9 log10; in series [3] (setting [7]), 3.8 log10. The “MHV-A59 viral load reduction” value in series [3] (setting [6]) is reported as > 99.9%. For the same compound, the IC50 in the series on WI-38 cells [4] and with 17Cl-1 cells was > 100 µM each time. In addition, the “reduction in cell viability” value with WI-38 cells [5] is reported as ~ 75%.

Turning to `CCCCCCCCn1c(=O)nc2n(CCN)c3cc(Br)c(Br)cc3nc-2c1=O` [Flavin F3], the “ФΔ singlet oxygen quantum yield” value in series [1] stood at 85%. The “φΔ singlet oxygen quantum yield” value in series [1] is 0.85 ± 0.09. Besides, the photodecomposition / degradation in series [2] was ~60%. Also, the figures for the “MHV-A59 log10 reduction in viral titre” value in series [3] (setting [8]), in series [3] (setting [6]) and in series [3] (setting [7]) were 2.1 log10, 4.1 log10 and 4.8 log10, respectively. The “MHV-A59 viral load reduction” value in series [3] (setting [6]) is recorded as > 99.99%. The IC50 with WI-38 cells [4] was 30.9 µM; in the series on 17Cl-1 cells, 3.66 µM. Also, in the series on WI-38 cells [5], the “reduction in cell viability” value was “no decrease in cell viability”.

`CCCCCCCCn1c(=O)nc2n(CCNC(=N)N)c3cc(Br)c(Br)cc3nc-2c1=O` [Flavin F4]: the “ФΔ singlet oxygen quantum yield” value in series [1] was found to be 62%. Also, in series [1], the “φΔ singlet oxygen quantum yield” value is recorded as 0.62 ± 0.10. Moreover, the photodecomposition / degradation in series [2] is on record as ~30%. Moreover, in series [3] (setting [8]), the “MHV-A59 log10 reduction in viral titre” value is 3.4 log10. Moreover, the “MHV-A59 viral load reduction” value in series [3] (setting [6]) is recorded as > 99.99%. For the same compound, the “viral inactivation, log10 reduction” value in series [3] (15 min irradiation at 1 μM) was > 3 log10. For the same compound, the IC50 in the series on WI-38 cells [4] was > 100 µM; with 17Cl-1 cells, 50.9 µM. Besides, in the series with WI-38 cells [5], the “reduction in cell viability” value is recorded as ~ 20%.
